Data taken from patent US9173876B2, “Preparation and therapeutic applications of (2S,3R)-N-2-((3-pyridinyl)methyl)-1-azabicyclo[2.2.2]oct-3-yl)-3,5-difluorobenzamide” (Targacept, Inc., priority 2009, dated 2015).

Experiments:
[1] = molecular target: α7 nicotinic ACh receptors (Homo sapiens, UniProt P36544); experiment: Electrophysiology, dose-response at α7 nicotinic ACh receptors; format: cell-based
nicotinic α7 receptor = nicotinic α7 receptor (Homo sapiens, UniProt P36544); experiment: Electrophysiology, co-application with ACh (hump currents, Dynaflow chip); format: cell-based
Sequence of nicotinic α7 receptor (P36544 23-502): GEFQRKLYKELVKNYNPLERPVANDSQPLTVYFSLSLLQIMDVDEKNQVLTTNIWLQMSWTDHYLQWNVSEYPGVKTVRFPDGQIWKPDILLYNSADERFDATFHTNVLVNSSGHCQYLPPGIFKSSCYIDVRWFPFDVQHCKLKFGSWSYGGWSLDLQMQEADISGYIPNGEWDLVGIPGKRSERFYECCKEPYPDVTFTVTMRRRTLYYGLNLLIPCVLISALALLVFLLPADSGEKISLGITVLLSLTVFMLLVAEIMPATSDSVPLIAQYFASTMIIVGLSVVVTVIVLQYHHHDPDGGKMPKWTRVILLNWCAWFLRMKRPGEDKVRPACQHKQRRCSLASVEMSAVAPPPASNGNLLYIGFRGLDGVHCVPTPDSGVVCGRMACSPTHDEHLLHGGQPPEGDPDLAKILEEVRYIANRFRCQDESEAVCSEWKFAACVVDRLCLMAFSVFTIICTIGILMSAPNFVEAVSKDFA
Procedure: Hump currents are defined as the tail current observed during co-application with endogenous ACh following agonist removal.
The channels were prepared as follows: Control solution (channel #2), application ligand itself (channel #3), application of acetylcholine itself (channel #1), and application of mixture of acetylcholine and ligand (channel #4).
Curve 1, FIG. 7B: The bar above the curve indicates time of ACh application. The curve represents current induced by a one second application of 70 μM ACh. The curve illustrates the result from moving the cell from channel #2 to channel #1 for a 1 second application of ACh and back to channel 2 (washout).
Curve 4, FIG. 7B: Curve 4 represents a repetition of Curve 1 at the end of measurements after application of the ligand and ACh/ligand mixture (recovery).
Curve 2, FIG. 7B: The down/up arrows indicates time of application.

Sprague-Dawley rats = experiment: Complete Freund's adjuvant (CFA)-induced thermal hyperalgesia; format: in vivo, rat; conditions: 0.1, 1 or 10 mg/kg s.c., 1 hour post-dose, vs vehicle
From the text: Briefly, adult male Sprague-Dawley rats (BioLasco, Taiwan) weighing 180±20 g on receipt were randomly assigned to treatment groups of n=8 per group. […] A subject was placed within a plastic box atop an elevated glass floor and a light beam located under the glass floor was directed at the plantar surface of the right hind paw. The time required for the animal to withdraw the paw from the thermal stimulus was automatically recorded. The intensity of the light was adjusted to evoke an average group baseline latency from 12-14 seconds (pre-CFA) and a cut-off latency of 20 seconds was imposed. The latency for paw withdrawal was obtained for each rat and defined as the heat pain threshold.
Test substance, morphine and vehicle were administered by subcutaneous (s.c.) injection at time 0. The post-treatment level of thermal hyperalgesia was then measured at 60 minutes post-treatment. One-way ANOVA followed by Dunnett's test was applied for comparison between test substance treated groups and vehicle control group. Activity was considered significant at the P<0.05 level.

[2] = system: STZ rat model of diabetic neuropathy; experiment: Streptozotocin (STZ)-induced diabetic neuropathy, Von Frey allodynia; format: in vivo; conditions: for Tactile allodynia (Von Frey): 30 min after administration
Procedure: Diabetes was induced by a 0.5 ml injection of streptozotocin (60 mg/kg) dissolved in citrate buffer (pH=6) into the tail vein of each rat. The development of diabetes was confirmed by measuring the blood glucose levels (BGL) of all animals on study day 3 (BGL>300 mg/dL). […] These animals were tested again for their BGL at study day 23.
(2S,3R)—N-2-((3-pyridinyl)methyl)-1-azabicyclo[2.2.2]oct-3-yl)-3,5-difluorobenzamide (0.1, 1 or 10 mg/kg p.o.) was administered as a solution of the hydrochloride salt in water once daily starting on study day 14 or study day 16 and continuing through study day 21 or 23, respectively. The control article gabapentin (in 0.9% saline, 150 mg/kg i.p.) was only administered on allodynia test days. Test item, vehicle or control article administration was based on evaluation of allodynia on study day 14. If allodynia was not present on study day 14, the animal was evaluated again at study day 16. Pain response was measured either on study days 14 and 21 or 16 and 23, 30 minutes after Test Item administration.
For the allodynia assessments, Von Frey filaments were used according to the methods of Chaplan and colleagues (1994). Briefly, the rats were placed in an enclosure and positioned on a metal mesh surface, but allowed to move freely. The rats' cabins were covered with red cellophane to diminish environmental distributions. The test began after cessation of exploratory behavior.
When the tip of a Von Frey fiber of given length and diameter was pressed against the skin at right angles, the force of application increases as long as the researcher continued to advance the probe until the fiber bent. After the fiber bent, the probe was advanced, causing the fiber to bend more, but without additional force being applied. The animal would indicate sensation by pulling back its paw. In the absence of a paw withdrawal response to the initially selected filament, a stronger stimulus was presented: in the event of paw withdrawal, the next weaker stimulus was chosen. In this fashion, the resulting pattern of positive and negative responses was used to determine the paw withdrawal threshold.
The set of Von Frey monofilaments provide an approximate logarithmic scale of actual force and a linear scale of perceived intensity. Below is a table showing the force (g) and its corresponding size of monofilaments.
All normally distributed data are presented as means±SEM, as well as the animals' individual values followed by a student T-test (Software: Microsoft® Excel). A p value<0.05 is considered to represent a significant difference. Due to the non-normal distribution of the allodynia data, descriptions of those data are provided as both mean (+SEM) and median values in order to represent their imprecise nature and skewed distribution.

[3] = system: ovalbumin-sensitized mice; experiment: Airway hyperresponsiveness, Penh response to methacholine; format: in vivo, mouse; conditions: for Methacholine-induced increase in Penh values: FIG. 21
Procedure: (§1) Using the method of Hamelmann et al, (2S,3R)—N-2-((3-pyridinyl)methyl)-1-azabicyclo[2.2.2]oct-3-yl)-3,5-difluorobenzamide was evaluated for possible inhibition of airway hyper-responsiveness in mice. Briefly, ovalbumin (OVA)-sensitized animals, 12 animals per group, were challenged by nasal inhalation with aerosolized 5% OVA for 25 min on days 21, 23, and 25. The mice were treated with vehicle or (2S,3R)—N-2-((3-pyridinyl)methyl)-1-azabicyclo[2.2.2]oct-3-yl)-3,5-difluorobenzamide subcutaneously (s.c.) twice daily from day 21 to day 26 or once daily intratracheally (i.t.), preceding ovalbumin aerosol challenge by 30 min on days 21, 23 and 25 as well as methacholine challenge or bronchoalveolar lavage fluids (BALF) harvest on day 26. Dexamethasone, the reference standard, was administered at 3 mg/kg orally (p.o.) once daily 60 min before OVA challenge on day 21, 23 and 25 and 60 min before methacholine provocation or BALF harvest on day 26. Noninvasive measurements of airway responsiveness were performed by using whole body plethysmography, in which increases in enhanced pause (Penh) serve as an index of airway obstruction. Responses to inhaled methacholine were measured and calculated as percentage of respective baseline values. Unpaired Student's t-test was used for comparison between the vehicle control and the sham group; one-way ANOVA and Dunnett's post-hoc analyses were applied for comparison between the vehicle control and treated groups. Statistical significance is considered at P<0.05.

[4] = system: ovalbumin-sensitized mice; experiment: White blood cell and differential cell counts in BALF; format: in vivo, mouse
Procedure: as §1

[5] = Aqueous solubility (salt screen); conditions: free base form

Sequence of α7 nicotinic ACh receptors (P36544 23-502): as above

With `O=C(N[C@@H]1C2CCN(CC2)[C@H]1Cc1cccnc1)c1cc(F)cc(F)c1` [Compound A] the “Functional mode at the α7 NNR” value [1] was “partial agonist”, the “Hump current on application of compound following ACh” value (nicotinic α7 receptor; 200 nM compound with ACh, Curve 3 FIG. 7B) was “profound “hump” current” and the “Current produced by compound alone” value (nicotinic α7 receptor; 200 nM, 5 second application, Curve 2 FIG. 7B) was “do not produce robust macro currents”. The “Concentration at EMAX of hump current” value (nicotinic α7 receptor; 100-500 nM range, n=4, FIG. 7C) was “approximately 500 nM”, the “Effect on ACh-induced current on co-application with ACh” value (nicotinic α7 receptor; FIG. 6) was “enhanced ACh-induced current” and the “Analgesic effect on CFA-induced thermal hyperalgesia” value (Sprague-Dawley rats) was “not associated with any significant analgesic effect”. The “Diabetic neuropathy pain, Von Frey assessment” value ([2]; 1 mg/kg and 10 mg/kg, compared to vehicle, FIG. 14) was “effective in reducing diabetic neuropathy pain”, the “Tactile allodynia (Von Frey)” value ([2]; 1 mg/kg p.o., study days 14/16, vs pretreatment p<0.01, vs vehicle p<0.05) was “inhibited allodynia” and the “Tactile allodynia (Von Frey)” value ([2]; 1 mg/kg p.o., study days 21/23, vs pretreatment p=0.012) was “inhibited allodynia”. The “Tactile allodynia (Von Frey)” value ([2]; 10 mg/kg p.o., study days 14/16, vs pretreatment p=0.012) was “inhibited allodynia”, the “Tactile allodynia (Von Frey)” value ([2]; 10 mg/kg p.o., study days 21/23, vs vehicle p<0.05) was “inhibited allodynia” and the “Methacholine-induced increase in Penh values” ([3]; 10 mg/kg IT qd) was “significant inhibition”. For the same compound, the “Methacholine-induced increase in Penh values” ([3]; 0.1, 1, and 10 mg/kg bid s.c.) was “significant inhibition”, the “Protection against airway hyper-responsiveness (summary)” value ([3]; 0.1, 1 and 10 mg/kg bid s.c. and 10 mg/kg i.t.) was “significant protection against airway hyper-responsiveness” and the “Monocytes in BALF” value ([4]; 10 mg/kg SC) was “reduced”. For the same compound, the “Total WBC and eosinophils in BALF” value ([4]; 0.1 and 1 mg/kg SC) was “significantly reduced”, the “Lymphocytes in BALF” value ([4]; 0.1 and 1 mg/kg SC and 10 mg/kg IT) was “reduced” and the “Eosinophils and white blood cells in BALF (summary)” value ([4]; multiple administrations, lacks a consistent dose-response relationship) was “significant reduction in eosinophils and white blood cells in BALF”. For the same compound, the Water solubility [5] was “limited”.
